PubChem BioAssay AID1963446 (Molecular Pharmacology Branch, DTP, NCI, 2024)
Where “and” joins values, the source holds several entries; their conditions need not be identical. Equal values may be shown once.

Tested on: 993429-296-R-J1-PDC complex spheroid growth, percent test/control
Experiment: Anticancer human tumor 993429-296-R-J1-PDC patient-derived uterine sarcoma cell line growth inhibition [Asc]
Details: for viability, T/C: stronger effect = lower value
Method: Multicellular complex tumor spheroid response to apoptosis pathway targeting inhibitors Alrizomadlin, Pelcitoclax, and Dasminapant in combination with a variety of drugs and investigational agents in selected tumor cell lines
The MDM2 inhibitor alrizomadlin, the Bcl-2/Bcl-xL inhibitor pelcitoclax, and the IAPs inhibitor dasminapant were evaluated both individually and in combination with standard of care and investigational anticancer small molecules within a complex spheroid model of solid tumors. . Complex spheroids include a stromal component modeled by human endothelial cells (HUVEC) and fibroblasts modeled by human mesenchymal stem cells (MSCs). The concentration ranges selected for each drug and investigational agent were based upon clinically achievable concentrations if the clinical Cmax of the agent was known.
Compounds. The drugs and investigational agents: alrizomadlin (APG-115; NSC831270), pelcitoclax (APG-1252; NSC835773), dasminapant (APG-1387;NSC834197), TAK-243 (NSC785004), copanlisib (NSC809693), olaparib (NSC753686), talazoparib (NSC767125), cobimetinib (NSC 768068), eltanexor (KPT-8602, NSC 794443), abemaciclib (NSC 768073), sotorasib (NSC818433), adagrasib (NSC 831453), MRTX-1133 (NSC 836407), Iadademestat (ORY1001, NSC 806812), and RMC-4630 (NSC839698), were obtained from the NCI Developmental Therapeutics Program Chemical Repository. The FDA-approved anticancer drug set is available from the Developmental Therapeutics Program at https://dtp.cancer.gov/organization/dscb/obtaining/available plates.htm. […] The stock solutions were prepared in dimethyl sulfoxide (DMSO, Sigma-Aldrich, St. Louis, MO, cat. D2650) at 800-fold the tested concentration and stored at -70 degrees C prior to their use. All drugs and investigational agents were tested over a range starting from a high concentration at or near the clinical Cmax and decreasing in half-log increments. If the clinical Cmax for an agent had not been determined, the highest concentration tested was 10 microM.
The patient-derived cancer (PDC) cell lines include five colon adenocarcinomas: 186277-243-T-J2-PDC, 616215-338-R-J1-PDC, 439559-082-T-J2-PDC, 463943-066-T-J2-PDC, and 519858-162-T-J1-PDC; three pancreatic carcinomas: 323965-272-R-J2-PDC, 521955-158-R6-J3-PDC, and 521955-158-R2-J5-PDC; two uterine sarcomas: 327498-152-R-J2-PDC and 993429-296-R-J1-PDC; two rhabdomyosarcomas: 755483-174-R-J1-PDC and 772245-204-R-J1-PDC; two soft tissue sarcomas: 126254-015-R-J1-PDC and 494315-158-R-J1-PDC; two malignant fibrous histiocytomas: 317291-083-R-J1-PDC and 596521-263-R-J1-PDC; two breast carcinomas: 171881-019-R-J1-PDC and 885512-296-R-J2-PDC; and one ovarian carcinoma: 6556581-035-R-J-PDC were obtained from the NCI PDMR, (https://pdmr.cancer.gov). The established cell lines HSSY-2 synovial sarcoma (RRID:CVCL 8719), SYO-1 synovial sarcoma (RRID:CVCL_7146), MPNST malignant peripheral neural sheath tumor were obtained from the Sloan Kettering Institute. The following established cell lines were purchased from the American Type Culture Collection (ATCC, Manassas, VA), Sor the received from the NCI repository:, PANC-1 pancreatic carcinoma (CRL-1469, RRID:CVCL_0480), OVCAR-5 ovarian carcinoma (RRID:CVCL_1628), OVCAR-8 ovarian carcinoma (RRID:CVCL_1629), , MCF-7 breast carcinoma (CRL-12584, RRID:CVCL_0031), MDA-MB-231 breast carcinoma (CRL-12532, RRID:CVCL_0062), NCI-H1876 small cell lung carcinoma (CRL-5902, RRID:CVCL_1503), NCI-H510A small cell lung carcinoma (HTB-184, RRID:CVCL_1565), NCI-H1417 (CRL-5869, RRID:CVCL_1469), and NCI-H196 small cell lung carcinoma (CRL-5823, RRID:CVCL_1509). Dr. Peter Houghton (Greehey Children's Cancer Research Institute, University of Texas Health Science Center, San Antonio, TX) provided Rh-18 rhabdomyosarcoma (RRID:CVCL_1659). Pooled donor human umbilical vein endothelial cells (HUVEC, Lonza, cat. CC-2519) and human mesenchymal stem cells (hMSC, Lonza, cat. PT-2501) were purchased from Lonza (Walkersville, MD).
Cell Culture. […]

[1] = curve of first compound, second compound 0.1 µM
[2] = curve of first compound, second compound 0.316 µM
[3] = curve of first compound, second compound 1 µM
[4] = second compound 0.1 µM, first compound 0.0316 µM
[5] = second compound 0.1 µM, first compound 0.1 µM
[6] = second compound 0.1 µM, first compound 0.316 µM
[7] = second compound 0.1 µM, first compound 1 µM
[8] = second compound 0.316 µM, first compound 0.0316 µM
[9] = second compound 0.316 µM, first compound 0.1 µM
[10] = second compound 0.316 µM, first compound 0.316 µM
[11] = second compound 0.316 µM, first compound 1 µM
[12] = second compound 1 µM, first compound 0.0316 µM
[13] = second compound 1 µM, first compound 0.1 µM
[14] = second compound 1 µM, first compound 0.316 µM
[15] = second compound 1 µM, first compound 1 µM
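Note: spheroids exposed to compounds for seven days.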

**Q.** What does the source list for `CNC(C)C(=O)NC1CN(S(=O)(=O)c2cccc(S(=O)(=O)N3CCC4CCC(C(=O)NC(c5ccccc5)c5ccccc5)N4C(=O)C(NC(=O)C(C)NC)C3)c2)CCC2CCC(C(=O)NC(c3ccccc3)c3ccccc3)N2C1=O` (stereo not drawn) + Cc1c(S(C)(=O)=O)c(-c2cc(F)cc(N3CCN(c4ccc(NS(=O)(=O)c5ccc(NC(CCN6CCC(C(=O)OCCCP(=O)(O)O)CC6)CSc6ccccc6)c(S(=O)(=O)C(F)(F)F)c5)cc4)CC3)c2)c(-c2ccc(Cl)cc2)n1C(C)C?
**A.** IC50 [1]: 542 nM; IC50 [2]: 100 nM; IC50 [3]: < 3.16 nM; IC50 (curve of first compound, second compound 3.16 µM): 3.25 nM; IC50 (curve of first compound, second compound 10 µM): 901 nM; viability, T/C (second compound 0.1 µM, first compound 0.00316 µM): 75.5%; viability, T/C (second compound 0.1 µM, first compound 0.01 µM): 60.4%; viability, T/C [4]: 62.1%; viability, T/C [5]: 53%; viability, T/C [6]: 56%; viability, T/C [7]: 45.3%; viability, T/C (second compound 0.316 µM, first compound 0.00316 µM): 59.3%; viability, T/C (second compound 0.316 µM, first compound 0.01 µM): 59.7%; viability, T/C [8]: 54.3%; viability, T/C [9]: 42%; viability, T/C [10]: 54.6%; viability, T/C [11]: 41.7%; viability, T/C (second compound 1 µM, first compound 0.00316 µM): 48.9%; viability, T/C (second compound 1 µM, first compound 0.01 µM): 40.8%; viability, T/C [12]: 47.4%; viability, T/C [13]: 48.9%; viability, T/C [14]: 41.6%; viability, T/C [15]: 42.8%; viability, T/C (second compound 3.16 µM, first compound 0.00316 µM): 50.2%; viability, T/C (second compound 3.16 µM, first compound 0.01 µM): 39.1%; viability, T/C (second compound 3.16 µM, first compound 0.0316 µM): 29.4%; viability, T/C (second compound 3.16 µM, first compound 0.1 µM): 30.7%; viability, T/C (second compound 3.16 µM, first compound 0.316 µM): 34.5%; viability, T/C (second compound 3.16 µM, first compound 1 µM): 24.1%; viability, T/C (second compound 10 µM, first compound 0.00316 µM): 85.5%; viability, T/C (second compound 10 µM, first compound 0.01 µM): 81.9%; viability, T/C (second compound 10 µM, first compound 0.0316 µM): 67.5%; viability, T/C (second compound 10 µM, first compound 0.1 µM): 56.8%; viability, T/C (second compound 10 µM, first compound 0.316 µM): 45.5%; viability, T/C (second compound 10 µM, first compound 1 µM): 53.5%

**Q.** Which viability, T/C (compound 0.00949 µM) does the source give for `Cc1nc(N2CCC3(CC2)COC(C)C3N)c(CO)nc1Sc1ccnc(N)c1Cl` (stereo not drawn) here?
**A.** Its viability, T/C is 94.6% and 84.2% and 83.6%.

**Q.** And the viability, T/C (compound 0.03 µM)?
**A.** The viability, T/C was 93.1% and 77% and 87.6%.

**Q.** What about the viability, T/C (compound 0.0949 µM) of the same molecule?
**A.** The viability, T/C was 75.2% and 65.9% and 54.9%.

**Q.** And the viability, T/C (compound 0.3 µM)?
**A.** Its viability, T/C is 58.9% and 43% and 42.1%.

**Q.** And the viability, T/C (compound 0.949 µM)?
**A.** Its viability, T/C is 49% and 32.2% and 34.5%.

**Q.** What about the viability, T/C (compound 3 µM) of the same molecule?
**A.** Its viability, T/C is 40.3% and 25.8% and 27.8%.

**Q.** And the IC50 (curve of compound)?
**A.** Its IC50 is 712 nM and 216 nM and 144 nM.

**Q.** What does the source list for `O=C(c1cc(Cc2n[nH]c(=O)c3ccccc23)ccc1F)N1CCN(C(=O)C2CC2)CC1` + CNC(C)C(=O)NC1CN(S(=O)(=O)c2cccc(S(=O)(=O)N3CCC4CCC(C(=O)NC(c5ccccc5)c5ccccc5)N4C(=O)C(NC(=O)C(C)NC)C3)c2)CCC2CCC(C(=O)NC(c3ccccc3)c3ccccc3)N2C1=O?
**A.** IC50 (curve of first compound, second compound 0.01 µM): 2080 nM; IC50 (curve of first compound, second compound 0.0316 µM): 1740 nM; IC50 [1]: 1110 nM; IC50 [2]: 406 nM; IC50 [3]: 903 nM; viability, T/C (second compound 0.01 µM, first compound 0.0316 µM): 63.2%; viability, T/C (second compound 0.01 µM, first compound 0.1 µM): 73.3%; viability, T/C (second compound 0.01 µM, first compound 0.316 µM): 64.6%; viability, T/C (second compound 0.01 µM, first compound 1 µM): 64.5%; viability, T/C (second compound 0.01 µM, first compound 3.16 µM): 41.8%; viability, T/C (second compound 0.01 µM, first compound 10 µM): 17.7%; viability, T/C (second compound 0.0316 µM, first compound 0.0316 µM): 61.5%; viability, T/C (second compound 0.0316 µM, first compound 0.1 µM): 56.2%; viability, T/C (second compound 0.0316 µM, first compound 0.316 µM): 59.5%; viability, T/C (second compound 0.0316 µM, first compound 1 µM): 59.6%; viability, T/C (second compound 0.0316 µM, first compound 3.16 µM): 40%; viability, T/C (second compound 0.0316 µM, first compound 10 µM): 12.4%; viability, T/C [4]: 53.4%; viability, T/C [5]: 63.5%; viability, T/C [6]: 54.8%; viability, T/C [7]: 51.4%; viability, T/C (second compound 0.1 µM, first compound 3.16 µM): 36.3%; viability, T/C (second compound 0.1 µM, first compound 10 µM): 11.6%; viability, T/C [8]: 60.2%; viability, T/C [9]: 55.9%; viability, T/C [10]: 43.6%; viability, T/C [11]: 45.5%; viability, T/C (second compound 0.316 µM, first compound 3.16 µM): 39%; viability, T/C (second compound 0.316 µM, first compound 10 µM): 14.1%; viability, T/C [12]: 53.2%; viability, T/C [13]: 48%; viability, T/C [14]: 59.5%; viability, T/C [15]: 48.7%; viability, T/C (second compound 1 µM, first compound 3.16 µM): 28.1%; viability, T/C (second compound 1 µM, first compound 10 µM): 10.7%

**Q.** `C#Cc1c(F)ccc2cc(O)cc(-c3ncc4c(N5CC6CCC(C5)N6)nc(OCC56CCCN5CC(F)C6)nc4c3F)c12` (stereo not drawn) was tested. Which viability, T/C (compound 0.0316 µM) did it give?
**A.** Its viability, T/C is 102% and 88% and 97.9%.

**Q.** And the viability, T/C (compound 0.1 µM)?
**A.** The viability, T/C was 108% and 101% and 89.1%.

**Q.** What about the viability, T/C (compound 0.316 µM) of the same molecule?
**A.** Its viability, T/C is 86% and 86.7% and 88.8%.

**Q.** What about the viability, T/C (compound 1 µM) of the same molecule?
**A.** Its viability, T/C is 93.3% and 82.2% and 100%.

**Q.** What about the viability, T/C (compound 3.16 µM) of the same molecule?
**A.** The viability, T/C was 91.9% and 81.4% and 106%.

**Q.** What about the IC50 (curve of compound) of the same molecule?
**A.** Its IC50 is > 10000 nM and 5020 nM and 5680 nM.
